≈ marks a conversion by molar mass, not a printed value.
Key:
Type in all cases: cell-based
[1] = tested on: Clostridium difficile ATCC BAA 1801; experiment: Clostridium difficile inhibition analysis; conditions: for Clostridium difficile inhibition: Table 6, ATCC BAA 1801
[2] = tested on: C. difficile NR-32883 (P2); experiment: Clostridium difficile inhibition analysis; conditions: for Clostridium difficile inhibition: Table 6, P2
[3] = tested on: Clostridium difficile ATCC 9689; experiment: Clostridium difficile inhibition analysis; conditions: Table 6, ATCC 9689
[4] = tested on: C. difficile NR-13435 (isolate 9); experiment: Clostridium difficile inhibition analysis; conditions: for Clostridium difficile inhibition: Table 6, I9
[5] = tested on: C. difficile NR-32904 (P30); experiment: Clostridium difficile inhibition analysis; conditions: for Clostridium difficile inhibition: Table 6, P30
MRSA ATCC 33592 = experiment: MIC, broth microdilution; conditions: Staphylococcus aureus; MRSA ATCC 33592; read-out: MIC
Experimental: (§1) Bacteria were cultured in cation-adjusted Mueller Hinton Broth (for strains in Tables 1 and 4) or Brain Heart Infusion broth (for Enterococcus faecium) or Tryptic Soy Broth (all other bacteria) in a 96-well plate at 37° C. for at least 20 hours. The MIC was classified as the lowest concentration where no visual growth of bacteria was observed. The minimum bactericidal concentration (MBC) was tested by spotting 4 μL from wells with no growth onto Tryptic Soy Agar (TSA) plates. Plates were incubated at 37° C. for at least 18 hours before recording the MBC.

S. aureus = experiment: MIC (Table 5, strain not given); conditions: Staphylococcus aureus; S. aureus (Table 5)
Experimental: as §1

[6] = tested on: Clostridium difficile ATCC 43255; experiment: Clostridium difficile inhibition analysis; conditions: Table 6, ATCC 43255
[7] = tested on: C. difficile NR-32895 (P19); experiment: Clostridium difficile inhibition analysis; conditions: for Clostridium difficile inhibition: Table 6, P19
[8] = tested on: C. difficile NR-32891 (P13); experiment: Clostridium difficile inhibition analysis; conditions: for Clostridium difficile inhibition: Table 6, P13
[9] = tested on: C. difficile NR-13432 (isolate 6); experiment: Clostridium difficile inhibition analysis; conditions: for Clostridium difficile inhibition: Table 6, I6
E. faecalis = experiment: MIC (Table 5, strain not given); conditions: Enterococcus faecalis; E. faecalis (Table 5)
Experimental: as §1

VRE = experiment: MIC (Table 5, strain not given); conditions: Enterococcus; VRE (Table 5)
Experimental: as §1

[10] = tested on: Pseudomonas aeruginosa ATCC 15442; experiment: MIC against Gram-negative pathogens
Experimental: as §1

[11] = tested on: Acinetobacter baumannii ATCC 19606; experiment: MIC against Gram-negative pathogens
Experimental: as §1

[12] = tested on: Klebsiella pneumoniae BAA-1706; experiment: MIC against Gram-negative pathogens
Experimental: as §1

Compound: CN(c1ccccc1)S(=O)(=O)c1ccc(C(=O)Nc2nnc(-c3ccc(C(F)(F)F)cc3)o2)cc1 [HSGN-161, 4-(N-methyl-N-phenylsulfamoyl)-N-(5-(4-(trifluoromethyl)phenyl)-1,3,4-oxadiazol-2-yl)benzamide]
- Clostridium difficile inhibition [1]: 1
- Clostridium difficile inhibition [2]: 0.5
- Clostridium difficile inhibition [3]: 0.5
- Clostridium difficile inhibition [4]: 0.5
- Clostridium difficile inhibition [5]: 0.5
- MIC (MRSA ATCC 33592): 0.25 µg/mL (≈ 0.498 µM)
- MIC (S. aureus): 0.25 µg/mL (≈ 0.498 µM)
- Clostridium difficile inhibition [6]: 0.5
- Clostridium difficile inhibition [7]: 0.5
- Clostridium difficile inhibition [8]: 0.5
- Clostridium difficile inhibition [9]: 0.5

Compound: CC1CC(C)CN(S(=O)(=O)c2cncc(C(=O)Nc3nnc(-c4ccc(C(F)(F)F)cc4)o3)c2)C1 (stereo not drawn) [HSGN 216, 5-((3,5-dimethylpiperidin-1-yl)sulfonyl)-N-(5-(4-(trifluoromethyl)phenyl)-1,3,4-oxadiazol-2-yl)nicotinamide]
- Antibacterial activity ([1]; Table 7, C. difficile ATCC BAA 1801): 0.25
- Antibacterial activity ([2]; Table 7, C. difficile NR-32883 (P2)): 0.06
- Antibacterial activity ([4]; Table 7, C. difficile NR-13435 (isolate 9)): 0.125
- Antibacterial activity ([5]; Table 7, C. difficile NR-32904 (P30)): 0.5
- Antibacterial activity ([7]; Table 7, C. difficile NR-32895 (P19)): 0.125
- Antibacterial activity ([8]; Table 7, C. difficile NR-32891 (P13)): 0.5
- Antibacterial activity ([9]; Table 7, C. difficile NR-13432 (isolate 6)): 0.125

Compound: C[C@@H]1C[C@H](C)CN(S(=O)(=O)c2ccc(C(=O)Nc3nnc(-c4ccnn4C)o3)cc2)C1 [HSGN-124, 4-(((3S,5R)-3,5-dimethylpiperidin-1-yl)sulfonyl)-N-(5-(1-methyl-1H-pyrazol-5-yl)-1,3,4-oxadiazol-2-yl)benzamide]
- Clostridium difficile inhibition [1]: 2
- Clostridium difficile inhibition [2]: 0.5
- Clostridium difficile inhibition [3]: 1
- Clostridium difficile inhibition [4]: 0.5
- Clostridium difficile inhibition [5]: 2
- MIC (MRSA ATCC 33592): 4 µg/mL (≈ 9 µM)
- MIC (S. aureus): 8 µg/mL (≈ 18 µM)
- MIC (E. faecalis): 16 µg/mL (≈ 36 µM)
- MIC (VRE): 128 µg/mL (≈ 288 µM)
- Clostridium difficile inhibition [6]: 1
- Clostridium difficile inhibition [7]: 1
- Clostridium difficile inhibition [8]: 2
- Clostridium difficile inhibition [9]: 0.5

Compound: Colistin [reference compound]
- MIC [10]: ≤1 µg/mL
- MIC [11]: ≤1 µg/mL
- MIC [12]: ≤1 µg/mL

Compound: O=C(Nc1nnc(-c2ccc(C(F)(F)F)cc2)o1)c1ccc(S(=O)(=O)Nc2ccccc2)cc1 [HSGN-118, 4-(N-phenylsulfamoyl)-N-(5-(4-(trifluoromethyl)phenyl)-1,3,4-oxadiazol-2-yl)benzamide]
- Clostridium difficile inhibition [1]: 0.5
- Clostridium difficile inhibition [2]: 0.5
- Clostridium difficile inhibition [3]: 0.5
- Clostridium difficile inhibition [4]: 0.5
- Clostridium difficile inhibition [5]: 0.5
- MIC (MRSA ATCC 33592): 4 µg/mL (≈ 8.19 µM)
- MIC (S. aureus): 4 µg/mL (≈ 8.19 µM)
- Clostridium difficile inhibition [6]: 0.5
- Clostridium difficile inhibition [7]: 0.5
- Clostridium difficile inhibition [8]: 1
- Clostridium difficile inhibition [9]: 0.5
